Results reported in US20120321584A1, “PROCESSES FOR PREPARING AMINE SALTS OF KMUP-3 AND USE THEREOF” (KAOHSIUNG MEDICAL UNIVERSITY, priority 2011, published 2012).
Counter-ions that a name gives are not always drawn.

Columns and labels:
[1] = tested on: electrically-stimulated left atria; test: Electrically-stimulated beating left atrium, organ bath; format: cell-based, guinea-pig; conditions: for Effect of pretreatment on KMUP-3-induced positive inotropic activity: propranolol and Y27632 1 μM, C3 exoenzyme 50 μg/mL, ketanserin 1.0 μM, L-NAME 100 μM
Description: Organ bath experiments and tissue procurement. Guinea-pigs were killed by a blow on the head. Their hearts were quickly excised and trimmed of excess tissues. The atrium was carefully removed and placed at room temperature (20˜25° C.) in a Krebs solution of the following composition (mM): NaCl 113, KCl 4.8, CaCl2 2.2, KH2PO4 1.2, MgCl2 1.2, NaHCO3 25, dextrose 11.0; bubbled with a 95% O2+5% CO2 mixture, followed by separation of right and left atrium for subsequent experiments.
Quiescent left atria free of connective tissues were dissected and mounted in an organ bath under a resting tension of 0.5 g. Organs were bathed at 32.5° C. in aerated Krebs solution and electrically stimulated with 1 Hz at […] via two platinum electrodes placed at either side. The positive inotropic effect was measured by determining the cumulative concentration-response curves in the presence of KMUP-3 or KMUP-3 amine salt (0.1, 1.0, 10, 100 μM). To examine the possible involvement of NO and cAMP/cGMP in the action of KMUP-3 or KMUP-3 amine salt on electrically-stimulated beating atria, pre-incubated with a ROCK inhibitor Y27632 (1.0 μM), a β-adrenoceptor blocker propranolol (1.0 μM), eNOS inhibitors L-NAME (100 μM), 7-nitroindazole (100 μM) and 5-HT inhibitor ketanserin (1.0 μM) was performed for 15 min prior to the addition of KMUP-3 or KMUP-3 amine salt to measure the development of beating force and heart rate for 10 min.

PKA = PKA expression in electrically-stimulated left atria, Western blotting; format: cell-based, guinea-pig; conditions: Y27632 1-100 μM
Description: (§1) Protein extraction and Western blotting analysis. Briefly, after incubation with test agents in an organ bath, isolated beating atrium was frozen and pulverized to a fine powder at the temperature of liquid nitrogen. Atrium powders were then homogenized in protein extraction reagent (Pierce Biotechnology, Inc., Rockford, Ill.) by sonication. The samples were sonicated 10 sec three times and centrifuged at 13,000 rpm at 4° C. for 30 min. The protein concentrations of supernatants were determined by using bovine serum albumin as the standard. The cell extracts were then boiled in a ratio of 4:1 with sample buffer (Tris 100 mM, pH 6.8; glycerol 20%, Sodium dodecyl sulfate (SDS) 4% and bromophenol blue 0.2%). Electrophoresis was performed using 10% SDS-PAGE and transferred to nitrocellulose membranes (Millipore Corp., Billerica, Mass.). The membrane was blocked with Tris-buffered saline (TBS; 20 mM Tris and 137 mM NaCl, pH 7.6) containing 0.1% Tween 20 (TTBS) and 5% nonfat milk at room temperature for 1 h, washed with TTBS, and then incubated overnight at 4° C. in the appropriate primary antibody for PKARI, RhoA, ROCKII, p-CIP-17, CPI-17 and PKG1α1β. The membranes were washed in TTBS before being incubated with horseradish peroxidase-conjugated antibody against mouse, goat, or rabbit IgG for 1 hr. Membranes were then washed in TTBS and developed with the enhanced chemiluminescence for the detection of the specific antigen. The intensity of the bands was measured by densitometry. eNOS or phosphorylated eNOS were extracted from cell culture of neonatal myocytes, PA ring and aortic ring (2-3 mm) of rats and measured by Western blotting analysis.
(§2) PK, ROCKII and CIP-17 expression and pretreatment of beating left atrium. To examine whether KMUP-3 or KMUP-3 amine salt affects the protein expression in beating atrium, PKA, ROCKII, PKG and phosphorylated CIP-17 was determined by Western blotting, respectively. […]

PKCα = PKCα translocation of beating left atrium; format: cell-based, guinea-pig; conditions: Y27632 1-10 μM
Description: To determine the effect of KMUP-3 or KMUP-3 amine salt on PKCa translocation, isolated left beating atrium was incubated with KMUP-3 or KMUP-3 amine salt for 30 minutes (0.1-10 μM). In brief, frozen left atrium was pulverized to a fine powder at the temperature of liquid nitrogen for preparation of cytosolic and membrane fractions. Isolated left atrium tissues were then homogenized by a sonicator (XL-2020, Heat Systems Ultrasonic, Plainview, N.Y., USA) at 4 in 1 ml of homogenization buffer containing 20 mM Tris-HCl (pH 7.5), 1 mM dithiothreitol (DTT), 5 mM EGTA, 2 mM EDTA, 0.5 mM PMSF, 20 μM leupeptin and 20 μM aprotinin. The cytosol fractions were obtained by collecting the supernatants after centrifuging the cells at 100,000×g for 45 minutes at 4. The pellets were resonicated in the homogenizing buffer with 1% Triton X-100, centrifuged again at 100,000×g for 45 minutes at 4, and the supernatants collected as membrane fractions. The extracts for cytosol and membrane fractions were denatured by heating at for 10 minutes in sampling buffer, and an aliquot containing 20 μg of total protein was subjected to a 10% SDS-polyacrylamide gel electrophoresis. […] Protein was detected with horseradish peroxidase (HRP) conjugated secondary antibody (BD Transduction Laboratories). […] The immunoreactive bands were detected by chemiluminescence (ECL) reagents (PerkinElmer Life Sciences, Inc).

L-type Ca2+ channels = test: Ca2+ entry currents in H9c2 cells, whole cell patch-clamp; format: cell-based, rat; conditions: KMUP-3 10 μM with KT5823 3 μM or Y27642 50 μM
Description: To measure the ICa through L-type Ca^2+ channels, whole cell patch-clamp electrophysiology was used in rat heart-derived H9c2 cells as previously described. In brief, H9c2 cells were placed in a recording dish and perfused with a bath solution containing (in mM): 135 tetraethylammonium (TEA)-Cl, 1.8 CaCl2, 2 MgCl2, 10 glucose, and 10 HEPES (pH 7.4, Tris). […] Negative pressure was briefly applied to rupture the membrane and a gigaohm seal was obtained.
H9c2 cells were clamped at −80 mV with step depolarizations (300 ms) from −80 to 0 mV to evoke whole-cell ICa. Voltage clamped cells were equilibrated for 15 min prior to experimentation. Membrane currents were recorded on an Axopatch 700A amplifier (Axon Instruments, Union City, Calif.), filtered at 1 kHz using a low-pass Bessel filter, digitized at 5 kHz and stored on a computer for subsequent analysis with Clampfit 9.0. Following equilibration, ICa was monitored in the presence and absence of KMUP-3 or KMUP-3 amine salt (1, 10, 100 μM). To ascertain whether PKG or ROCK signaling was involved in the KMUP-3-induced decreases in ICa, H9c2 cells were incubated for 15 min with the combination of KMUP-3 or KMUP-3 amine salt (10 μM) and PKG antagonist KT5823 (3 μM) or ROCK inhibitor Y-27632 (50 μM). All electrical recordings were performed at room temperature.

[2] = Hemodynamic measurements in anesthetized rats (LVSP, dP/dt, MABP, HR); format: in vivo, Wistar rats; conditions: intravenous pretreatment at 1 mg/kg; KMUP-3 1 mg/kg, i.v.
Description: Hemodynamic measurements were carried out in male Wistar rats weighting 300˜350 g, anesthetized with pentobarbital sodium (40 mg kg^−1, i.p.). In brief, polyethylene tubing (PE50) was placed in the trachea to keep the airway patent, and rats continued to breathe spontaneously. Subsequently, rats were used to record hemodynamic and cardiovascular function. Vascular catheters (PE50) were placed in the femoral arteries to measure mean arterial blood pressure (MABP) and heart rate (HR). Changes of MABP and HR caused by KMUP-3 or KMUP-3 amine salt were recorded from the femoral artery with a pressure transducer (Gould, Model P50, U.S.A.), connected with a Pressure Processor Amplifier (Gould, Model 13-4615-52, U.S.A.). A femoral vein was used for intravenous administration of KMUP-3 or KMUP-3 amine salt. A specialized transducer tip catheter was placed in the right carotid artery and advanced into the left ventricle of the heart for measurement of left ventricular pressure (LVSP) or contractility; dP/dt at 50 mm Hg, an index of cardiac contractility, was derived from the left ventricular pressure trace; post-hoc vascular resistance was calculated as mean arterial blood pressure/peripheral cardiac output (MABP/PCO). Body temperature was monitored throughout the experiment and maintained between 37 and 37.5° C. by using a heating pad.
Each dose of active drugs was administered as a 20-min infusion in a series of escalating doses dissolved in a 5% dextrose water vehicle. […] KMUP-3 HCl or KMUP-3 amine salt were infused at 0.03, 0.05, and 0.075 μg/kg/20 min for the measurement of FABP, intraperitoneally injected at 0.03, 0.05 and 0.1 mg/kg for the measurement of MABP and HR and infused by intravenous injection for 2 min at 0.5, 1.0, 3.0 mg/kg dissolved in 5% dextrose water vehicle (2 ml) for the measurement of LV systolic pressure (LVSH), ABP, dP/dt, and HR. The primary hemodynamic variables were computed using commercial software and a signal processing workstation. Animals were randomly divided into one of six treatment or vehicle groups. After the completion of the surgical protocol, animals were allowed to stabilize for 1 h, and baseline data were collected at 5-min intervals for 30 min before the treatment.

ROCKII [3] = test: ROCKII expression in electrically-stimulated left atria, Western blotting; format: cell-based, guinea-pig; conditions: Y27632 1-100 μM
Description: as §1, §2

ROCKII [4] = test: Protein expression of ROCKII by optical density after KMUPs salts (Table 2); format: cell-based; conditions: KMUPs salts 10 μM, 120 min; vehicle (without treatment) = 100 %
Description: as §1, with “The membranes were washed in TTBS before being incubated with horseradish peroxidase-conjugated antibody against mouse, goat, or rabbit IgG for 1 hr. Membranes were then washed in TTBS and developed with the enhanced chemiluminescence for the detection of the specific antigen.” left out

PDE-4 = test: Protein expression of PDE-4 by optical density after KMUPs salts (Table 2); format: cell-based; conditions: KMUPs salts 10 μM, 120 min; vehicle (without treatment) = 100 %
Description: as §1, with “The membranes were washed in TTBS before being incubated with horseradish peroxidase-conjugated antibody against mouse, goat, or rabbit IgG for 1 hr. Membranes were then washed in TTBS and developed with the enhanced chemiluminescence for the detection of the specific antigen.” left out

eNOS = test: Protein expression of eNOS by optical density after KMUPs salts (Table 2); format: cell-based; conditions: KMUPs salts 10 μM, 120 min; vehicle (without treatment) = 100 %
Description: as §1, with “The membranes were washed in TTBS before being incubated with horseradish peroxidase-conjugated antibody against mouse, goat, or rabbit IgG for 1 hr. Membranes were then washed in TTBS and developed with the enhanced chemiluminescence for the detection of the specific antigen.” left out

PDE-5 = test: Protein expression of PDE-5 by optical density after KMUPs salts (Table 2); format: cell-based; conditions: KMUPs salts 10 μM, 120 min; vehicle (without treatment) = 100 %
Description: as §1, with “The membranes were washed in TTBS before being incubated with horseradish peroxidase-conjugated antibody against mouse, goat, or rabbit IgG for 1 hr. Membranes were then washed in TTBS and developed with the enhanced chemiluminescence for the detection of the specific antigen.” left out

PDE-3 = test: Protein expression of PDE-3 by optical density after KMUPs salts (Table 2); format: cell-based; conditions: KMUPs salts 10 μM, 120 min; vehicle (without treatment) = 100 %
Description: as §1, with “The membranes were washed in TTBS before being incubated with horseradish peroxidase-conjugated antibody against mouse, goat, or rabbit IgG for 1 hr. Membranes were then washed in TTBS and developed with the enhanced chemiluminescence for the detection of the specific antigen.” left out

Molecule: C[C@@H](N)[C@H]1CC[C@H](C(=O)Nc2ccncc2)CC1 [Y27632, reference compound]
- Effect of pretreatment on KMUP-3-induced positive inotropic activity [1]: reduced
- Effect on KMUP-3-induced expression of PKA (PKA): inhibited
- Effect of pretreatment on KMUP-3-induced translocation of PKCα (PKCα): insignificantly prevented
- Effect of combination on currents reduced by KMUP-3 (L-type Ca2+ channels): restored
- Effect of pretreatment on the effects (LVSP, dP/dt, MABP) induced by KMUP-3 [2]: inhibited
- Effect on KMUP-3-induced expression of ROCK II (ROCKII [3]): inhibited

Molecule: COC(=O)[C@@]1(OC)C[C@H]2O[C@]1(C)n1c3ccccc3c3c4c(c5c6ccccc6n2c5c31)C(=O)N(C)C4 [KT5823]
- Effect of combination on currents reduced by KMUP-3 (L-type Ca2+ channels): restored

Molecule: Cn1c(=O)c2c(ncn2CCN2CCN(c3ccc([N+](=O)[O-])cc3)CC2)n(C)c1=O [KMUP-3-HCl]
- ROCKII protein expression, optical density (%) (ROCKII [4]): 42 ± 2.2%
- PDE-4 protein expression, optical density (%) (PDE-4): 48 ± 2.1%
- eNOS protein expression, optical density (%) (eNOS): 138 ± 5.2%
- PDE-5 protein expression, optical density (%) (PDE-5): 48 ± 1.9%
- PDE-3 protein expression, optical density (%) (PDE-3): 55 ± 2.5%

Molecule: C3 exoenzyme: C3 exoenzyme, used at 50 μg/mL as pretreatment
- Effect of pretreatment on KMUP-3-induced positive inotropic activity [1]: reduced

Molecule: O=C(c1ccc(F)cc1)C1CCN(CCn2c(=O)[nH]c3ccccc3c2=O)CC1 [ketanserin, reference compound]
- Effect of pretreatment on KMUP-3-induced positive inotropic activity [1]: reduced
- Effect of pretreatment on the effects (LVSP, dP/dt, MABP) induced by KMUP-3 [2]: inhibited

Molecule: O=c1onc2cnc3ccccc3n12 [ODQ]
- Effect of pretreatment on KMUP-3-induced contractility ([1]; sGC inhibitor ODQ, eNOS inhibitor L-NAME): inhibited
